Tests used:
[1] = molecular target: T1, human pancreatic α-amylase (HPA) (Homo sapiens, UniProt P04746); assay: Kinetic analysis of HPA inhibition; type: biochemical
T1 sequence (P04746 16-511): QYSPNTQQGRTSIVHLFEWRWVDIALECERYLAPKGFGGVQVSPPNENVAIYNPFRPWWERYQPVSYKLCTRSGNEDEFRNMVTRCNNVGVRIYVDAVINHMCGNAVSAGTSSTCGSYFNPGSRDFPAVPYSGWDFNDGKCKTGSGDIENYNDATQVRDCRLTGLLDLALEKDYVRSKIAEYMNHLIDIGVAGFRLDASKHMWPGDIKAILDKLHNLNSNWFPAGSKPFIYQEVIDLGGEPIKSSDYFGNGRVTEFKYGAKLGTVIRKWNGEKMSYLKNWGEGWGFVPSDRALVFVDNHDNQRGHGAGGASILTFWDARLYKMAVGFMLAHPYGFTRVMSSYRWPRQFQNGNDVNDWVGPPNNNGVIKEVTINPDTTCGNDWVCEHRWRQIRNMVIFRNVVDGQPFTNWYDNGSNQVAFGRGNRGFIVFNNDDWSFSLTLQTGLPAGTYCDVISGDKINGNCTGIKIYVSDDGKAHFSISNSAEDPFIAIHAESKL

α-amylase (HPA) = molecular target: T2, α-amylase (HPA) (Homo sapiens, UniProt P04746); assay: Glycosidase specificity: α-amylase; type: biochemical; conditions: at 0.1 μM Montbretin A; read-out: RA (%), Residual Enzyme Activity
T2 sequence (P04746 16-511): T1 sequence (P04746 16-511)

[2] = molecular target: T3, β-glucosidase (Agrobacterium sp.) (Agrobacterium sp., UniProt P12614); assay: Glycosidase specificity: β-glucosidase; type: biochemical
T3 sequence (P12614 1-459): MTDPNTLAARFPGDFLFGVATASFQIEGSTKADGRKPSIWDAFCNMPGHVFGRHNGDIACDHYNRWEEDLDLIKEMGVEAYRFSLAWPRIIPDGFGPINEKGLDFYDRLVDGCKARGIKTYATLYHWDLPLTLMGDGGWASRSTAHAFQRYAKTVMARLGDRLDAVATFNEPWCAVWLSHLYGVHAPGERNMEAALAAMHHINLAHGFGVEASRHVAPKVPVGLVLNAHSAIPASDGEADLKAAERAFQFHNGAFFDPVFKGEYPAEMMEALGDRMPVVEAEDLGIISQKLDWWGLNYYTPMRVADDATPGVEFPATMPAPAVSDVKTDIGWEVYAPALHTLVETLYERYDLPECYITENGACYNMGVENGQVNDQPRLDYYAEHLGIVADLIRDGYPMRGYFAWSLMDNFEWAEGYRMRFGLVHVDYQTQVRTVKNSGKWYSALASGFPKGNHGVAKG
Excerpt: The subsequent residue of montbretin A is also a β-linked glucose residue, however this residue bears a large 6-O-caffeic ester moiety and would therefore not be processed by Abg. […] Thus, the terminal glucosyl residue on the trisaccharide moiety is not required for α-amylase activity.

[3] = tested on: β-hexosaminidase (Jack Bean); assay: Glycosidase specificity: β-hexosaminidase; type: biochemical; conditions: at 0.1 μM Montbretin A
[4] = molecular target: T4, α-mannosidase (Jack Bean) (Canavalia ensiformis, UniProt C0HJB3); assay: Glycosidase specificity: α-mannosidase; type: biochemical; conditions: at 0.1 μM Montbretin A; read-out: RA (%), Residual Enzyme Activity
T4 sequence (C0HJB3 1-981): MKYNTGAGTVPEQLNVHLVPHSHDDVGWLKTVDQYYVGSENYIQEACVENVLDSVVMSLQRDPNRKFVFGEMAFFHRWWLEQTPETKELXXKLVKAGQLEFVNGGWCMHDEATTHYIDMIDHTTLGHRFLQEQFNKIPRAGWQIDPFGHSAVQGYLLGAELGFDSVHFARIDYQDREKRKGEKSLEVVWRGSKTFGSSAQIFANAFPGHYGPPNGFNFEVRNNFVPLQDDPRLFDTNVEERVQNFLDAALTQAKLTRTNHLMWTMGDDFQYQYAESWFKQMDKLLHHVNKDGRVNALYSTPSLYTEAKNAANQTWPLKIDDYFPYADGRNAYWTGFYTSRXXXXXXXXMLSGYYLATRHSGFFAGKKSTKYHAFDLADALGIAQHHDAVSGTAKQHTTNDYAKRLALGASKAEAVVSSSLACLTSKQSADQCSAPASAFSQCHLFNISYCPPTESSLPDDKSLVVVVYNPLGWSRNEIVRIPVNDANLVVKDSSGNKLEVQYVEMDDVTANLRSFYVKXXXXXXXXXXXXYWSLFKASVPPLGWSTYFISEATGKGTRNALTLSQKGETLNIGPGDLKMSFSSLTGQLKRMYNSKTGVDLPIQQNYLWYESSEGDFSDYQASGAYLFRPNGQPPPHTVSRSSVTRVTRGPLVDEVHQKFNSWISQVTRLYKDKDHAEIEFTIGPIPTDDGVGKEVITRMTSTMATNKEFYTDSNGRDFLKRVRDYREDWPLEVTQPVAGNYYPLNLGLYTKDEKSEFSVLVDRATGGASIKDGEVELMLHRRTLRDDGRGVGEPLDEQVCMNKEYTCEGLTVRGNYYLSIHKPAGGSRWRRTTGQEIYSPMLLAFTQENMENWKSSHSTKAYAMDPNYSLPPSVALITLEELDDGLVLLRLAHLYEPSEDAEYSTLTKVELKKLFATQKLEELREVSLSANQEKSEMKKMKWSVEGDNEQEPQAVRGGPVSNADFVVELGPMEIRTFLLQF

[5] = molecular target: α-galactosidase (Green Coffee Beans) (Coffea arabica, UniProt Q42656); assay: Glycosidase specificity: α-galactosidase; type: biochemical; conditions: at 0.1 μM Montbretin A; read-out: RA (%), Residual Enzyme Activity
male Wistar rats = assay: Taste aversion study, drinking water; type: in vivo, rat; conditions: approximately 10 mg/kg/day in drinking water
Procedure: A study was done to determine if there is aversion by animals to the taste of montbretin A dissolved in drinking water. Six (6) male Wistar rats weighing between 500-650 g were housed 2 rats per cage. Three hundred grams (300 g) of standard rat chow (Purnia) was placed in the food hopper of each cage daily. Food consumption per cage per day was determined every 24 hours for 3 days. A fluid volume of 900 ml of drinking water was placed on each cage daily. Fluid consumption per cage per day was determined every 24 hours for 3 days. Body weights of each animal were measured every 24 hours.
Based on the preliminary drinking water values obtained, montbretin A was dissolved in the drinking water so as to deliver a dose of 10 mg/kg/day. Body weight and food consumption measurements were done as described above. A fluid volume of 250 ml of montbretin A solution at a concentration of 0.09 mg/ml was placed on each cage daily. Fluid consumption was measured every 24 hours for 3 days.
The food and fluid consumption and body weights were analyzed. The dose of montbretin A was determined based on weight and consumption values. There was no effect of montbretin A dissolved in the drinking water on body weight, fluid intake or food intake and a dose of approximately 10 mg/kg was achieved.

Sequence of α-galactosidase (Green Coffee Beans) (Q42656 16-378): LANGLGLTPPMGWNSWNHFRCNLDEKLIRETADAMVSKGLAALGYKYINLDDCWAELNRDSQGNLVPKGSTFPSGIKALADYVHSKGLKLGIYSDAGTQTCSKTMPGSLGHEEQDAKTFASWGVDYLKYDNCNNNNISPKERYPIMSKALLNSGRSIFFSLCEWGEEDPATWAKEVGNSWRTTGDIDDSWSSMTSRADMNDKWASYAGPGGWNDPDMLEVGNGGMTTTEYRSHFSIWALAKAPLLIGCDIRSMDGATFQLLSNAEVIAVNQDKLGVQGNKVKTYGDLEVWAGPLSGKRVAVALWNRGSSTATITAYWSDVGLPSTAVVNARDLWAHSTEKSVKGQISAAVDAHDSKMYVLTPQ

## CC1O[C@@H](O[C@@H]2CO[C@@H](Oc3c(O)cc(-c4oc5cc(O)cc(O)c5c(=O)c4O[C@@H]4OC(C)[C@H](O)[C@H](O)C4O[C@@H]4OC(COC(=O)/C=C/c5ccc(O)c(O)c5)[C@@H](O)[C@@H](O)C4O[C@@H]4OC(CO)[C@@H](O)[C@@H](O)C4O)cc3O)C(O)[C@@H]2O)C(O)[C@@H](O)[C@H]1O (stereo partly drawn) [Montbretin A, montbretin A]
[1]; double reciprocal plot
  mode of inhibition of HPA: competitive
[1]; presence of 1 mM calcium chloride
  effect of calcium on HPA inhibition: no change in inhibition
[1]; presence vs absence of 5 mM dithiothreitol
  effect of DTT on HPA inhibition: No effect
[1]; varied substrate and inhibitor concentrations, GraFit
  Ki: 8.1 ± 0.5 nM
α-amylase (HPA)
  remaining activity at 0.1 µM: 11%
[2]; at 0.1 μM Montbretin A, read-out: RA (%), Residual Enzyme Activity
  remaining activity at 0.1 µM: 100%
[2]; extent of inhibition decreasing with time
  inhibition of β-glucosidase from Agrobacterium (Abg): time dependent inhibition
[2]; pre-incubation with Abg prior to addition of assay substrate
  inhibition of Abg after pre-incubation: no inhibition
[3]
  RA (%), Residual Enzyme Activity: 99%
[4]
  remaining activity at 0.1 µM: 100%
[5]
  remaining activity at 0.1 µM: 100%
Male Wistar rats; 3 days
  effect on body weight: no effect
  effect on fluid intake: no effect
  effect on food intake: no effect
Male Wistar rats; duration of the trial
  side effects: no overt indications of side effects
